Test results from patent US20240151732A1, “EX VIVO METHOD FOR ANALYSING A TISSUE SAMPLE USING PROTEOMIC PROFILE MATCHING, AND ITS USE FOR THE DIAGNOSIS, PROGNOSIS OF PATHOLOGIES AND FOR PREDICTING RESPONSE TO TREATMENTS” (Université de Bordeaux, priority 2021, published 2024).

Experiments:
advanced HCC [1] = settings: phase III study, first line; Kudo et al. [10]; cited from earlier work
advanced HCC [2] = settings: SHARP test; proportion of good responders to sorafenib; cited from earlier work
HUH7 cells = test: growth of HUH7 cells; assay type: cell-based; settings: in our hands
HCC cells = settings: in vitro and in vivo; Xu et al. [23]; cited from earlier work

COc1cc2nccc(Oc3ccc(NC(=O)NC4CC4)c(Cl)c3)c2cc1C(N)=O [lenvatinib]
overall survival compared to sorafenib (advanced HCC [1]): non-inferiority

CNC(=O)c1cc(Oc2ccc(NC(=O)Nc3ccc(Cl)c(C(F)(F)F)c3)cc2)ccn1 [sorafenib]
objective response (advanced HCC [2]): 2%

Cc1ncc(C[n+]2csc(CCO)c2C)c(=O)[nH]1 [oxythiamine]
effect on the growth of HUH7 cells (HUH7 cells): did not confirm the effect
efficacy in HCC cells (HCC cells): effective
